Measured values as given in article PMC6298432 (ACS chemical biology, 2017).

Key:
[1] = system: M. tuberculosis ATCC 27294; test: M. tuberculosis growth inhibition assay; assay type: cell-based
[2] = system: FolA (dihydrofolate reductase, DHFR); test: ALIS binding to FolA; set-up: species or system E. coli
[3] = system: Mycobacterium tuberculosis (Mtb); assay type: cell-based; details: active = ≥80% inhibition of bacterial growth
[4] = system: mouse dihydrofolate reductase; details: cited from earlier work
E. coli = test: Historical phenotypic screen for inhibitors of E. coli growth; assay type: cell-based; details: active = ≥80% inhibition of bacterial growth
[5] = biological target: FolA (dihydrofolate reductase, DHFR); details: cited from earlier work

Row | Structure (SMILES) | Inhibition of Mtb growth (antibacterial activity) [1] | Binding to FolA detected in ALIS [2] | Activity in E. coli growth phenotypic screen (E. coli) | also measured
1 | CN(Cc1cnc2nc(N)nc(N)c2n1)c1ccc(C(=O)N[C@@H](CCC(=O)O)C(=O)O)cc1 [Methotrexate] | no efficacy | – | – | –
2 | COc1cc(Cc2cnc(N)nc2N)cc(OC)c1Br [brodimoprim] | – | failure to detect their binding | – | –
3 | C#CCN(Cc1cnc2nc(N)nc(N)c2n1)c1ccc(C(=O)N[C@@H](CCC(=O)O)C(=O)O)cc1 [10-PAP, 10-propargylaminopterin] | retained bioactivity | – | – | Activity in Mtb growth phenotypic screen [3]: active; Inhibition of mouse dihydrofolate reductase [4]: inhibit
4 | COc1cc(Cc2cnc(N)nc2N)cc(OC)c1OC [Trimethoprim] | – | – | active | –
5 | COc1ccc(Cc2cnc(N)nc2N)cc1OC [Diaveridine] | – | binders detected | active | IC50 for FolA [5]: nanomolar
